The source of these data is patent publication US20260258022A1, “NOVEL HETEROCYCLIC-SUBSTITUTED PYRIMIDINE DERIVATIVE EXHIBITING CANCER CELL GROWTH INHIBITORY EFFECT, AND PHARMACEUTICAL COMPOSITION CONTAINING SAME” (ONCOBIX CO., LTD., priority 2021, published 2026).

Assay [1] deals with ALK(L1196M) (Homo sapiens, UniProt Q9UM73, L1196M). In words: Kinase inhibitory activity, [33P]-ATP filter assay, ALK(L1196M). The format is biochemical. The note with it: ALK point mutant kinase, scintillation counting. How it is done: (§1) For the compounds of Examples 1 to 8 above, the inhibitory activity against ALK, ALK mutation (ALK(G1202R)), and […] (ALK(L1196M)) was measured, and the results are shown in Table 1 below. […] Crizotinib […] was used as a control drug. • 1. Each kinase was incubated under 8 mM MOPS, pH 7.0, 0.2 mM EDTA, 250 μM KKKGQEEEYVFIE, 1 mM sodium orthovanadate, 5 mM sodium-6-glycerophosphate, 10 mM Magnesium acetate, [^33P]-ATP. • 2. The reaction proceeded by adding the evaluation compound (DMSO solution) and Mg/ATP. • 3. After about 40 minutes at room temperature, the reaction was terminated by adding 10 μL of 0.5% phosphoric acid. • 4. The reaction solution was divided into 0.5% 10 μL and spotted on a P30 filtermat. • 5. It was washed four times with 0.425% phosphoric acid for about 4 minutes. After washing once with methanol, it was dried and analyzed by scintillation counting to measure the IC50 value.

Assay [2] concerns the target ALK (Homo sapiens, UniProt Q9UM73). In words: Kinase inhibitory activity, [33P]-ATP filter assay, ALK. Format: biochemical. Particulars: wild-type ALK kinase, scintillation counting. On the procedure:
as §1

Assay [3] deals with ALK(G1202R) (Homo sapiens, UniProt Q9UM73, G1202R). Description: Kinase inhibitory activity, [33P]-ATP filter assay, ALK(G1202R). Format: biochemical. Particulars: ALK point mutant kinase, scintillation counting. How it is done: as §1
Assay [4] concerns H3122 (EML4-ALK v1). Description: Cancer cell growth inhibition, MTT assay, H3122. Particulars: Homo sapiens, NCI-H3122, 72 hours incubation. The format is cell-based. How it is done: (§2) The growth inhibitory effects of the compounds in Examples 3, 7, and 8 above on ALK mutant cancer cell lines were measured. Anticancer efficacy activity was measured using H3122 (EML4-ALK v1) and H2228 (EML4-ALK v3) as ALK mutant cell lines by the following method.
(§3) 2×10^5 cells were seeded in a 96-well plate. 24 hours later, each of the compounds in Examples 3, 7, and 8 was treated in a dose-dependent manner, incubated for 72 hours, reacted with 15 uL MTT reagent for 4 hours, and then 100 uL 10% SDS was added thereto and incubated for 24 hours. The change in final OD was read at 595 nm. To analyze the MTT results, IC50 values were measured using prism software.
(§4) APG-2449 was used as a control drug.
For orientation: Formazan colour is commonly taken as a measure of viable cells.

Assay [5] has as its system H2228 (EML4-ALK v3). In words: Cancer cell growth inhibition, MTT assay, H2228. Format: cell-based. The note with it: Homo sapiens, NCI-H2228, 72 hours incubation. On the procedure: as §2, §3, §4

Chain of ALK(L1196M) (Q9UM73 19-1620 L1196M): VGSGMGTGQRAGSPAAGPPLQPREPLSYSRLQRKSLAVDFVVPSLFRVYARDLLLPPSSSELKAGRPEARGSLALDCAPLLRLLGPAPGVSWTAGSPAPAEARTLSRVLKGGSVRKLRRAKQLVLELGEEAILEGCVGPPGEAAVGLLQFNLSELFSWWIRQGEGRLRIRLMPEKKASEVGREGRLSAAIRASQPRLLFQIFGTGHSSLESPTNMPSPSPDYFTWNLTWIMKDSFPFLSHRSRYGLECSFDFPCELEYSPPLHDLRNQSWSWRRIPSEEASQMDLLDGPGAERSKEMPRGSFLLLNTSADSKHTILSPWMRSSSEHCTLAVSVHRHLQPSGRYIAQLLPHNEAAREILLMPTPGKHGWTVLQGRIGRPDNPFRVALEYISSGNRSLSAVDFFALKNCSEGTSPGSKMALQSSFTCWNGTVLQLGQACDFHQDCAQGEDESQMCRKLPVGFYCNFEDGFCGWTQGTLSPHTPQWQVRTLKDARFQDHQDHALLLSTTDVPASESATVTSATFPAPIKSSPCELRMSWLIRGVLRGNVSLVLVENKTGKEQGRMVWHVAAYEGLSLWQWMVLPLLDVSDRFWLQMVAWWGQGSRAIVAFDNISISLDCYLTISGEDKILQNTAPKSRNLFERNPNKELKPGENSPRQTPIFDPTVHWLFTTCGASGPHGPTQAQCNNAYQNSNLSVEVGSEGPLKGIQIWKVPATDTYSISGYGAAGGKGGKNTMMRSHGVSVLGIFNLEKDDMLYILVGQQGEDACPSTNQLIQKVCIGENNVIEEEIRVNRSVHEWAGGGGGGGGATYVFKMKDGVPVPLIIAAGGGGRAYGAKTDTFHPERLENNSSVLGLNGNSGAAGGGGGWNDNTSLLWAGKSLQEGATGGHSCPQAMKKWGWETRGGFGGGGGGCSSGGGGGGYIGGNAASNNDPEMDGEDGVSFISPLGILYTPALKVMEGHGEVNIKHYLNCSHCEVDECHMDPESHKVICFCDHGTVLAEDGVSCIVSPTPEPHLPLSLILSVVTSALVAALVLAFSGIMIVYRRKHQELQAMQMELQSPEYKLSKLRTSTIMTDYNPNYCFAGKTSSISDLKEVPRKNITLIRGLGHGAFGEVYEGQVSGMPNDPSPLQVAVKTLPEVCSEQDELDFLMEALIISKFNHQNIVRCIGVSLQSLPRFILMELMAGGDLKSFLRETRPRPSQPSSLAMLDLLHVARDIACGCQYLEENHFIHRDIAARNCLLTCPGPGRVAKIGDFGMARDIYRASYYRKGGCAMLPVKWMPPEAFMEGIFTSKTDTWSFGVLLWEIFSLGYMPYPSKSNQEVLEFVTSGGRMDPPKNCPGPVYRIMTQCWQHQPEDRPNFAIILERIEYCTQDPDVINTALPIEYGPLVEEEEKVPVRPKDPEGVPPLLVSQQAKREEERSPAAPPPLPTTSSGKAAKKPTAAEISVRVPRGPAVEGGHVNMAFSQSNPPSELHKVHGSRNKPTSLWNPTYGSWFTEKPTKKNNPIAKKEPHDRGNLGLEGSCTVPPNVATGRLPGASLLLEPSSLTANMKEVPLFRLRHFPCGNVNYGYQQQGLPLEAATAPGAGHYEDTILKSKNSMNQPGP
Chain of ALK (Q9UM73 19-1620): as the sequence (Q9UM73 19-1620 L1196M) above, with M1178L counted along it
Chain of ALK(G1202R) (Q9UM73 19-1620 G1202R): as the sequence (Q9UM73 19-1620 L1196M) above, with M1178L, G1184R counted along it

`Cc1cc(Nc2ncc(Cl)c(Nc3ccccc3S(=O)(=O)C(C)C)n2)c(OC(C)C)cc1C1=CCN(C2CCOCC2)CC1` [APG-2449, reference compound]: the half-maximal inhibitory concentration (IC50) (usually the concentration at which inhibition is half-maximal) in assay [1] is 0.9 nM; in assay [2], 0.8 nM; in assay [3], over 1000 nM; in assay [4], 87.8 nM; in assay [5], 62.9 nM.
As to `Cc1cc(Nc2ncc(Cl)c(Nc3ccccc3N(C)S(C)(=O)=O)n2)c(OC(C)C)cc1C1=CCN(C2CCOCC2)CC1` [Example 1, N-(2-((5-chloro-2-((2-isopropoxy-5-methyl-4-(1-(tetrahydro-2H-pyran-4-yl)-1,2,3,6-tetrahydropyridin-4-yl)phenyl)amino)pyrimidin-4-yl)amino)phenyl)-N-methylmethanesulfonamide], the half-maximal inhibitory concentration (IC50) was 0.2 nM in assay [1], 1.1 nM in assay [2] and 17.8 nM in assay [3].
For the compound `Cc1cc(Nc2ncc(Cl)c(Nc3ccccc3NS(C)(=O)=O)n2)c(OC(C)C)cc1C1=CCN(C2CCOCC2)CC1` [Example 2, N-(2-((5-chloro-2-((2-isopropoxy-5-methyl-4-(1-(tetrahydro-2H-pyran-4-yl)-1,2,3,6-tetrahydropyridin-4-yl)phenyl)amino)pyrimidin-4-yl)amino)phenyl)methanesulfonamide], the IC50 in assay [1] amounted to 0.6 nM; in assay [2], 1.8 nM; in assay [3], 25.8 nM.
Regarding `Cc1cc(Nc2ncc(Cl)c(Nc3ccccc3N(C)S(=O)(=O)C3CC3)n2)c(OC(C)C)cc1C1=CCN(C2CCOCC2)CC1` [Example 3, N-(2-((5-chloro-2-((2-isopropoxy-5-methyl-4-(1-(tetrahydro-2H-pyran-4-yl)-1,2,3,6-tetrahydropyridin-4-yl)phenyl)amino)pyrimidin-4-yl)amino)phenyl)-N-methylcyclopropanesulfonamide], the half-inhibitory concentration (IC50) in assay [1] was 0.05 nM; in assay [2], 0.6 nM; in assay [3], 0.7 nM; in assay [4], 31.9 nM; in assay [5], 43.1 nM.
Take `Cc1cc(Nc2ncc(Cl)c(Nc3ccccc3N(C)S(=O)(=O)C(C)C)n2)c(OC(C)C)cc1C1=CCN(C2CCOCC2)CC1` [Example 4, N-(2-((5-chloro-2-((2-isopropoxy-5-methyl-4-(1-(tetrahydro-2H-pyran-4-yl)-1,2,3,6-tetrahydropyridin-4-yl)phenyl)amino)pyrimidin-4-yl)amino)phenyl)-N-methylpropane-2-sulfonamide]: the IC50 stood at 0.3 nM in assay [1], 0.9 nM in assay [2] and 161 nM in assay [3].
The like results for `Cc1cc(Nc2ncc(Cl)c(Nc3ccccc3N(C3CC3)S(C)(=O)=O)n2)c(OC(C)C)cc1C1=CCN(C2CCOCC2)CC1` [Example 5, N-(2-((5-chloro-2-((2-isopropoxy-5-methyl-4-(1-(tetrahydro-2H-pyran-4-yl)-1,2,3,6-tetrahydropyridin-4-yl)phenyl)amino)pyrimidin-4-yl)amino)phenyl)-N-cyclopropylmethanesulfonamide] were, in that order, 0.5 nM, 3.1 nM and 153 nM.
The like results for `Cc1cc(Nc2ncc(Cl)c(Nc3ccccc3N(C(C)C)S(C)(=O)=O)n2)c(OC(C)C)cc1C1=CCN(C2CCOCC2)CC1` [Example 6, N-(2-((5-chloro-2-((2-isopropoxy-5-methyl-4-(1-(tetrahydro-2H-pyran-4-yl)-1,2,3,6-tetrahydropyridin-4-yl)phenyl)amino)pyrimidin-4-yl)amino)phenyl)-N-isopropylmethanesulfonamide] were, in that order, 6.7 nM, 0.6 nM and 254 nM.
On to `Cc1cc(Nc2ncc(Cl)c(Nc3ccccc3N(C)S(C)(=O)=O)n2)c(OCC(F)(F)F)cc1C1=CCN(C2CCOCC2)CC1` [Example 7, N-(2-((5-chloro-2-((5-methyl-4-(1-(tetrahydro-2H-pyran-4-yl)-1,2,3,6-tetrahydropyridin-4-yl)-2-(2,2,2-trifluoroethoxy)phenyl)amino)pyrimidin-4-yl)amino)phenyl)-N-methylmethanesulfonamide], for which the IC50 worked out at 0.05 nM in assay [1]; 0.5 nM in assay [2]; 10.5 nM in assay [3]; 39.1 nM in assay [4]; 16.8 nM in assay [5].
For `Cc1cc(Nc2ncc(Cl)c(Nc3ccccc3N(C)S(N)(=O)=O)n2)c(OC(C)C)cc1C1=CCN(C2CCOCC2)CC1` [Example 8], in that order: 0.07 nM, 0.6 nM, 17.8 nM, 22.1 nM and 20.8 nM.
